Here are results for 17 compounds from ChEMBL document CHEMBL2176897, “Synthesis and biological evaluation (in vitro and in vivo) of cyclic arginine-glycine-aspartate (RGD) peptidomimetic-paclitaxel conjugates targeting integrin αVβ3” (J Med Chem, 2012).

The source made the active and inactive calls. The calls are words filed in the database; no cut-off is given here.

Series [1] is described as follows: Cytostatic activity against human dermal fibroblasts assessed as growth inhibition at 64 to 1000 nM after 72 hrs by coulter counter analysis. Conditions: skin fibroblast, 1 µM.
The subject of series [2] is MIA PaCa-2. Briefly: Cytotoxicity against human MIAPaCa2 cells after 72 hrs by coulter counter analysis. The format is functional, cell-based. Particulars: MIA PaCa-2, 72 h.
Series [3] deals with PANC-1. Briefly: Cytotoxicity against human PANC1 cells after 72 hrs by coulter counter analysis. It is filed as functional, cell-based. Conditions: PANC-1, 72 h.
The subject of series [4] is SK-OV-3. Description: Cytotoxicity against human SKOV3 cells after 72 hrs by coulter counter analysis. The format is functional, cell-based. Particulars: SK-OV-3, 72 h.
Series [5] relates to U2OS. Description: Cytotoxicity against human U2OS cells after 72 hrs by coulter counter analysis. It is filed as functional, cell-based.
Series [6] has as its system IGROV-1. Briefly: Cytotoxicity against cisplatin-resistant human IGROV1/Pt1 cells after 72 hrs by coulter counter analysis. It is filed as functional, cell-based. Conditions: IGROV-1, 72 h.
The test system of series [7] is IGROV-1. Briefly: Cytotoxicity against human IGROV1 cells after 72 hrs by coulter counter analysis. Particulars: IGROV-1, 72 h. The format is functional, cell-based.
The nature of series [8]: Selectivity ratio of IC50 for integrin alphaVbeta5 receptor to IC50 for integrin alphaVbeta3 receptor.
Series [9] deals with Integrin alpha-V/beta-5 (Homo sapiens, UniProt P06756+P18084). Briefly: Competitive inhibition of biotinylated vitronectin to integrin alphaVbeta5 receptor after 3 hrs by microplate reader analysis. It is filed as protein-complex assay.
The target of series [10] is Integrin alpha-V/beta-3 (Homo sapiens, UniProt P05106+P06756). Description: Competitive inhibition of biotinylated vitronectin to integrin alphaVbeta3 receptor after 3 hrs by microplate reader analysis. It is filed as protein-complex assay.
Series [11] has as its system IGROV-1. Briefly: Induction of abberant mitosis in cisplatin-resistant human IGROV1/Pt1 cells overexpressing integrin alphaVbeta3 receptors xenografted in athymic Swiss mouse at 30 mg/kg, iv measured 24 hrs post fourth treatment by hematoxylin and eosin staining. It is filed as functional, organism-based. On the set-up: dose 30 mg/kg.
In series [12] the test system is IGROV-1. Briefly: Induction of abberant mitosis in cisplatin-resistant human IGROV1/Pt1 cells overexpressing integrin alphaVbeta3 receptors xenografted in athymic Swiss mouse at 30 mg/kg, iv measured 24 hrs post second treatment by hematoxylin and eosin staining. It is filed as functional, organism-based. Set-up: dose 30 mg/kg.
The subject of series [13] is Mus musculus. Description: Toxicity in athymic Swiss mouse xenografted with cisplatin-resistant human IGROV1/Pt1 cells overexpressing integrin alphaVbeta3 receptors assessed as body weight loss at 30 mg/kg, iv administered every 4 days for 4 times. Conditions: in vivo, 96 h. It is filed as organism-based, IGROV-1. Set-up: dose 30 mg/kg, route intravenous. Background: A xenograft is tissue or cells of one species grown in another, often human tumour cells in immunodeficient mice.

Series [14] can be described thus: Antitumor activity against cisplatin-resistant human IGROV1/Pt1 cells overexpressing integrin alphaVbeta3 receptors xenografted in athymic Swiss mouse assessed as tumor killing at 30 mg/kg, iv administered every 4 days for 4 times. It is filed as functional, IGROV-1.
The subject of series [15] is IGROV-1. Description: Antitumor activity against cisplatin-resistant human IGROV1/Pt1 cells overexpressing integrin alphaVbeta3 receptors xenografted in athymic Swiss mouse assessed as absence of disease at 30 mg/kg, iv administered every 4 days for 4 times measured up to 10 days. On the set-up: dose 30 mg/kg. It is filed as functional, organism-based.
Series [16] is described as follows: Antitumor activity against cisplatin-resistant human IGROV1/Pt1 cells overexpressing integrin alphaVbeta3 receptors xenografted in athymic Swiss mouse assessed as tumor volume inhibition at 30 mg/kg, iv administered every 4 days for 4 times measured after 10 days relative to control. The format is functional. Particulars: IGROV-1.
A short description of series [17]: Half life of the compound in glucose phosphate buffer at pH 7. It is filed as physicochemical.

For the compound `CC(=O)O[C@H]1C(=O)[C@@]2(C)[C@H]([C@H](OC(=O)c3ccccc3)[C@]3(O)C[C@H](OC(=O)[C@H](OC(=O)CCC(=O)NCc4ccc(CN5C(=O)[C@@H]6CC(=O)N[C@@H](CCCNC(=N)N)C(=O)NCC(=O)N[C@@H](CC(=O)O)C(=O)NC[C@@H]5C(=O)N6)cc4)[C@@H](NC(=O)c4ccccc4)c4ccccc4)C(C)=C1C3(C)C)[C@]1(OC(C)=O)CO[C@@H]1C[C@@H]2O`, the “growth inhibition (GI)” value in series [1] is listed as “Non-toxic”. For the same compound, the IC50 in series [2] was 2 nM; in series [3], 5.8 nM; in series [4] it was 1.6 nM; in series [5], 2.2 nM; in series [6] it was 18.7 nM; in series [7], 17.7 nM. Besides, the values for the IC50 in [9] and in series [10] were 518 nM and 8.5 nM, respectively. For the same compound, the Ratio IC50 in [8] stood at 20.

With `CC(=O)O[C@H]1C(=O)[C@@]2(C)[C@H]([C@H](OC(=O)c3ccccc3)[C@]3(O)C[C@H](OC(=O)[C@H](OC(=O)CCC(=O)NCc4ccc(CN5C(=O)[C@@H]6CNC(=O)[C@H](CC(=O)O)NC(=O)CNC(=O)[C@H](CCCNC(=N)N)NC(=O)C[C@@H]5C(=O)N6)cc4)[C@@H](NC(=O)c4ccccc4)c4ccccc4)C(C)=C1C3(C)C)[C@]1(OC(C)=O)CO[C@@H]1C[C@@H]2O`, in [1], the “growth inhibition (GI)” value is reported as “Non-toxic”. For the same compound, the IC50 in [2] was 2.5 nM; in series [3], 3.5 nM; in series [4], 2.4 nM; in series [5], 5.7 nM; in [6], 2.4 nM; in series [7], 48.2 nM. Further, the half-maximal inhibitory concentration (IC50) came out at 22 nM in [9] and 1.1 nM in series [10].

For `N=C(N)NCCC[C@@H]1NC(=O)C[C@@H]2C(=O)N(Cc3ccccc3)[C@@H](CNC(=O)[C@H](CC(=O)O)NC(=O)CNC1=O)C(=O)N2Cc1ccccc1` (stereo in doubt; 7b), in [10], the IC50 worked out at 0.2 nM.

With `N=C(N)NCCC[C@@H]1NC(=O)C[C@H]2NC(=O)[C@H](CNC(=O)[C@H](CC(=O)O)NC(=O)CNC1=O)N(Cc1ccccc1)C2=O`, the Ratio IC50 in series [8] was determined as 20. In [9], the IC50 was 149 nM.

For the compound `N=C(N)NCCC[C@@H]1NC(=O)C[C@H]2C(=O)N[C@H](CNC(=O)[C@H](CC(=O)O)NC(=O)CNC1=O)C(=O)N2Cc1ccc(CNC(=O)CCC(=O)O)cc1`, the Ratio IC50 in series [8] was determined as 20.

`N=C(N)NCCC[C@@H]1NC(=O)C[C@H]2NC(=O)[C@H](CNC(=O)[C@H](CC(=O)O)NC(=O)CNC1=O)N(Cc1ccc(CN)cc1)C2=O.O=C(O)C(F)(F)F`: the “growth inhibition (GI)” value in series [1] was “Non-toxic”. Further, the IC50 was > 11600 nM in [2]; > 11600 nM in [3]; > 11600 nM in [4]; > 6300 nM in series [5]; > 18000 nM in series [6]; > 1200 nM in [7]. In addition, the IC50 was > 5000 nM in [9] and 26.4 nM in series [10].

For the compound `CC(=O)O[C@H]1C(=O)[C@@]2(C)[C@H]([C@H](OC(=O)c3ccccc3)[C@]3(O)C[C@H](OC(=O)[C@H](O)[C@@H](NC(=O)c4ccccc4)c4ccccc4)C(C)=C1C3(C)C)[C@]1(OC(C)=O)CO[C@@H]1C[C@@H]2O` [PACLITAXEL], the outcome in [11] was inactive. Moreover, the outcome in series [12] and in series [15] was Active. The Activity in series [13] came to 4%. Besides, the LCK in [14] came out at 0.7. In addition, in series [16], the inhibition in vivo at 30 mg/kg is 76%. Besides, the “growth inhibition (GI)” value in series [1] is on record as “Non-toxic”. Further, the IC50 in [2] was determined as 7.2 nM; in series [3], 5.2 nM; in series [4] it was 2.7 nM; in [5] it was 3.4 nM; in series [6] it was 2.2 nM; in series [7] it was 23 nM.

In turn, `CC(=O)O[C@H]1C(=O)[C@@]2(C)[C@H]([C@H](OC(=O)c3ccccc3)[C@]3(O)C[C@H](OC(=O)[C@H](OC(=O)CCC(=O)N[C@@H](CCC(=O)NCCCC[C@@H]4NC(=O)[C@@H](Cc5ccccc5)NC(=O)[C@H](CC(=O)O)NC(=O)CNC(=O)[C@H](CCCNC(=N)N)NC4=O)C(=O)NCCCC[C@@H]4NC(=O)[C@@H](Cc5ccccc5)NC(=O)[C@H](CC(=O)O)NC(=O)CNC(=O)[C@H](CCCNC(=N)N)NC4=O)[C@@H](NC(=O)c4ccccc4)c4ccccc4)C(C)=C1C3(C)C)[C@]1(OC(C)=O)CO[C@@H]1C[C@@H]2O` had a half-life in series [17] of 2 h.

In the case of `NC(N)=NCCC[C@@H]1NC(=O)C[C@@H]2NC(=O)[C@H](CNC(=O)[C@H](CC(=O)O)NC(=O)CNC1=O)N(Cc1ccccc1)C2=O`, in [10], the IC50 was 3.9 nM.

`N=C(N)NCCC[C@@H]1NC(=O)C[C@@H]2C(=O)N(Cc3ccccc3)[C@@H](CNC(=O)[C@H](CC(=O)O)NC(=O)CNC1=O)C(=O)N2Cc1ccccc1` (stereo in doubt; 7a) displayed an IC50 in series [10] of 0.2 nM. This IC50 is about 20-fold lower than that of the compound before.

As to `N=C(N)NCCC[C@@H]1NC(=O)[C@@H]2CC[C@H]3CCC[C@@H](NC(=O)[C@H](CC(=O)O)NC(=O)CNC1=O)C(=O)N32`, the Ratio IC50 in series [8] stood at 20. The IC50 in series [9] amounted to 1.4 nM; in [10] it was 1 nM.

In the case of `CC(=O)O[C@H]1C(=O)[C@@]2(C)[C@H]([C@H](OC(=O)c3ccccc3)[C@]3(O)C[C@H](OC(=O)[C@H](OC(=O)CCC(=O)NCc4ccc(CN5C(=O)[C@H]6CNC(=O)[C@H](CC(=O)O)NC(=O)CNC(=O)[C@H](CCCN=C(N)N)NC(=O)C[C@H]5C(=O)N6)cc4)[C@@H](NC(=O)c4ccccc4)c4ccccc4)C(C)=C1C3(C)C)[C@]1(OC(C)=O)CO[C@@H]1C[C@@H]2O`, the “growth inhibition (GI)” value in series [1] is “Non-toxic”. The IC50 in series [2] amounted to 1.8 nM; in series [3] it was 3.2 nM; in series [4], 2.4 nM; in series [5], 6.8 nM; in series [6], 3.7 nM; in series [7] it was 34.4 nM. The IC50 is 76 nM in series [9] and 0.9 nM in series [10].

Consider `NC(N)=NCCC[C@@H]1NC(=O)C[C@H]2C(=O)N[C@H](CNC(=O)[C@H](CC(=O)O)NC(=O)CNC1=O)C(=O)N2Cc1ccc(CNC(=O)CCC(=O)O)cc1`, for which the results for the 50% inhibitory concentration (IC50) in series [9] and in series [10] were 75 nM and 4.1 nM, respectively.

As for `N=C(N)NCCC[C@@H]1NC(=O)C[C@H]2C(=O)N(Cc3ccccc3)[C@H](CNC(=O)[C@H](CC(=O)O)NC(=O)CNC1=O)C(=O)N2Cc1ccccc1`, the IC50 in series [10] is 0.2 nM.

Regarding `N=C(N)NCCC[C@@H]1NC(=O)C[C@@H]2C(=O)N[C@@H](CNC(=O)[C@H](CC(=O)O)NC(=O)CNC1=O)C(=O)N2Cc1ccccc1`, in series [8], the Ratio IC50 amounted to 20. Further, the figures for the IC50 in [9] and in series [10] were 79 nM and 2.1 nM, respectively.

For `N=C(N)NCCC[C@@H]1NC(=O)C[C@H]2C(=O)N[C@H](CNC(=O)[C@H](CC(=O)O)NC(=O)CNC1=O)C(=O)N2Cc1ccccc1`, in [8], the Ratio IC50 was 20. The IC50 in series [9] amounted to 216 nM; in series [10], 7.6 nM.

Take `N=C(N)NCCC[C@@H]1NC(=O)C[C@@H]2NC(=O)[C@@H](CNC(=O)[C@H](CC(=O)O)NC(=O)CNC1=O)N(Cc1ccccc1)C2=O`: the Ratio IC50 in series [8] worked out at 20. Further, the IC50 turned out to be 114 nM in series [9] and 3.2 nM in [10].

Usually IC50 stands for the point on the concentration scale where inhibition reaches its midpoint. One may read the inhibition in vivo as how much of the control response was suppressed. One may read the half-life as how long it takes for the measured level to halve. The low end stands for rapid decline, the high end for slow decline.
